Measured values from patent US20090018111A1, “Novel Antimicrobial Medicament” (priority 2004, published 2009).
Where two headings read alike, the source gives them in different places.

Experiments:
Experiment in all cases: Sensitivity test (agar dilution)
E. faecalis ATCC19433 = format: cell-based, Enterococcus faecalis
Description: (§1) The antibacterial activities were tested against various 18 bacteria (27 standard strains) which are representative bacteria caused clinically infectious disease (Staphylococcus aureus 3 strains, Staphylococcus epidermidis 1 strain, Micrococcus luteus 1 strain, Streptococcus pyogenes 1 strain, Enterococcus faecalis 1 strain, Enterococcus faecium 1 strain, Bacillus subtilis 1 strain, Escherichia coli 3 strains, Klebsiella pneumoniae 1 strain, Proteus mirabilis 1 strain, Proteus vulgaris 2 strains, Pseudomonas aeruginosa 3 strains, Serratia marcescens 2 strains, Enterobacter aerogenes 1 strain, Stenotrophomonas maltophilia 1 strain, Enterobacter cloacae 1 strain, Citrobacter freundii 1 strain, Moraxella catarrhalis 2 strains).
(§2) According to the standard method of Japan Chemotherapeutic Society (Chemotherapy, vol. […], p 76-79 (1981)) the test was carried out using the agar dilution method. After dissolving test samples in distilled water, agar medium containing the test samples was prepared in such a manner that the final concentration became twice serial dilution by pouring serially diluted combination drug solution or a single drug solution into agar medium. As agar medium was used Mueller Hinton Agar medium (MHA). Then, each strain was cultivated over night at 37° C. in an incubator and suspended in buffered saline solution with gelatin (BSG) in the concentration of about 10^6 CFU/ml. The suspension (about 5 μl) containing test strains was inoculated to the medium containing the test samples by Micro Planter.
(§3) When the sample is subjected to sensitivity test, this mixed solution was diluted by twice serial dilution method.
(§4) Furthermore, when the drug is solely used, each test sample was used as it is, and diluted by twice serial dilution method from the maximum concentration to the minimum concentration.
(§5) FIC index based on MIC value was calculated. […] Namely, when FIC index calculated by the following formula is equal or less than 1, the enhanced effect of the combination drug in said ratio is considered as positive. When FIC index is over 1, the enhanced effect of the combination drug in said ratio is considered as negative.
(§6) Formula of FIC index: FIC index=(MIC of Drug A in combination/MIC of Drug A alone)+(MIC of Drug B in combination/MIC of Drug B alone) N.C. in tables means being not calculated.

C. freundii GN346 = format: cell-based, Citrobacter freundii; conditions: Citrobacter freundii
Description: as §1, §2, §3, §4, §5, §6

S. marcescens GN6473 = format: cell-based, Serratia marcescens; conditions: Serratia marcescens
Description: as §1, §2, §3, §4, §5, §6

S. marcescens X 100 = format: cell-based, Serratia marcescens
Description: as §1, §2, §3, §4, §5, §6

C[C@H]1C=C(c2csc(SC3=C(C(=O)O)N4C(=O)[C@H]([C@@H](C)O)[C@H]4[C@H]3C)n2)CN1 [SM, (4R,5S,6S)-6-[(1R)-1-Hydroxyethyl]-4-methyl-3-({4-[(5S)-5-methyl-2,5-dihydro-1H-pyrrol-3-yl]-1,3-thiazol-2-yl}sulfanyl)-7-oxo-1-azabicyclo[3.2.0]hept-2-ene-2-carboxylic acid] was tested, and the MIC (E. faecalis ATCC19433; Enterococcus faecalis, ATCC19433, Concomitant drug (MEPM:SM = 2:1), read-out: MIC) was 0.5 µg/mL, the MIC (E. faecalis ATCC19433; Enterococcus faecalis, ATCC19433, alone, read-out: MIC) was 1 µg/mL and the MIC (E. faecalis ATCC19433; Enterococcus faecalis, ATCC19433, drug alone, E. faecalis ATCC19433, read-out: MIC alone) was 2 µg/mL. It also gave an MIC (E. faecalis ATCC19433; alone) of 2 µg/mL, an MIC alone (E. faecalis ATCC19433; drug alone, E. faecalis ATCC19433) of 1 µg/mL and an MIC (C. freundii GN346; GN346, Concomitant (AZT:SM = 1:1), C. freundii GN346, read-out: MIC concomitant) of 8 µg/mL. The MIC (C. freundii GN346; GN346, Concomitant (BIPM:SM = 1:1), C. freundii GN346, read-out: MIC concomitant) was 0.125 µg/mL, the MIC (C. freundii GN346; GN346, Concomitant (CAZ:SM = 1:1), C. freundii GN346, read-out: MIC concomitant) was 8 µg/mL and the MIC (C. freundii GN346; GN346, Concomitant (CPFX:SM = 1:1), C. freundii GN346, read-out: MIC concomitant) was 0.008 µg/mL. For the same molecule, the MIC (C. freundii GN346; GN346, Concomitant (DRPM:SM = 1:1), C. freundii GN346, read-out: MIC concomitant) was 0.063 µg/mL, the MIC (C. freundii GN346; GN346, Concomitant (IPM:SM = 1:1), read-out: MIC) was 0.25 µg/mL and the MIC (C. freundii GN346; GN346, Concomitant (MEPM:SM = 1:1), read-out: MIC) was 0.031 µg/mL. For the same molecule, the MIC (C. freundii GN346; GN346, Concomitant (MEPM:SM = 1:2), read-out: MIC) was 0.063 µg/mL, the MIC (C. freundii GN346; GN346, Concomitant (MEPM:SM = 1:4), read-out: MIC) was 0.125 µg/mL and the MIC (C. freundii GN346; GN346, Concomitant (PAPM:SM = 1:1), C. freundii GN346, read-out: MIC concomitant) was 0.25 µg/mL. It also gave an MIC (C. freundii GN346; GN346, Concomitant (PIPC:SM = 1:1), C. freundii GN346, read-out: MIC concomitant) of 8 µg/mL, an MIC (C. freundii GN346; GN346, Concomitant drug (MEPM:SM = 2:1), read-out: MIC) of 0.016 µg/mL and an MIC (C. freundii GN346; GN346, alone, read-out: MIC) of 8 µg/mL. The MIC (C. freundii GN346; GN346, drug alone, C. freundii GN346, read-out: MIC alone) was 8 µg/mL, the MIC (S. marcescens GN6473; GN6473, Concomitant (AZT:SM = 1:1), S. marcescens GN6473, read-out: MIC concomitant) was 0.25 µg/mL and the MIC (S. marcescens GN6473; GN6473, Concomitant (BIPM:SM = 1:1), S. marcescens GN6473, read-out: MIC concomitant) was 0.125 µg/mL. It also gave an MIC (S. marcescens GN6473; GN6473, Concomitant (CAZ:SM = 1:1), S. marcescens GN6473, read-out: MIC concomitant) of 0.5 µg/mL, an MIC (S. marcescens GN6473; GN6473, Concomitant (CPFX:SM = 1:1), S. marcescens GN6473, read-out: MIC concomitant) of 1 µg/mL and an MIC (S. marcescens GN6473; GN6473, Concomitant (DRPM:SM = 1:1), S. marcescens GN6473, read-out: MIC concomitant) of 0.063 µg/mL. It also gave an MIC (S. marcescens GN6473; GN6473, Concomitant (IPM:SM = 1:1), read-out: MIC) of 0.25 µg/mL, an MIC (S. marcescens GN6473; GN6473, Concomitant (MEPM:SM = 1:1), read-out: MIC) of 0.031 µg/mL and an MIC (S. marcescens GN6473; GN6473, Concomitant (MEPM:SM = 1:2), read-out: MIC) of 0.063 µg/mL. It also gave an MIC (S. marcescens GN6473; GN6473, Concomitant (MEPM:SM = 1:4), read-out: MIC) of 0.125 µg/mL, an MIC (S. marcescens GN6473; GN6473, Concomitant (PAPM:SM = 1:1), S. marcescens GN6473, read-out: MIC concomitant) of 0.25 µg/mL and an MIC (S. marcescens GN6473; GN6473, Concomitant (PIPC:SM = 1:1), S. marcescens GN6473, read-out: MIC concomitant) of 4 µg/mL. The MIC (S. marcescens GN6473; GN6473, Concomitant drug (MEPM:SM = 2:1), read-out: MIC) was 0.016 µg/mL, the MIC (S. marcescens GN6473; GN6473, alone, read-out: MIC) was 4 µg/mL and the MIC (S. marcescens GN6473; GN6473, drug alone, S. marcescens GN6473, read-out: MIC alone) was 4 µg/mL. The MIC (S. marcescens X 100; Serratia marcescens, X100, Concomitant (AZT:SM = 1:1), S. marcescens X 100, read-out: MIC concomitant) was 0.031 µg/mL, the MIC (S. marcescens X 100; Serratia marcescens, X100, Concomitant (BIPM:SM = 1:1), S. marcescens X 100, read-out: MIC concomitant) was 0.063 µg/mL and the MIC (S. marcescens X 100; Serratia marcescens, X100, Concomitant (CAZ:SM = 1:1), S. marcescens X 100, read-out: MIC concomitant) was 0.125 µg/mL. The MIC (S. marcescens X 100; Serratia marcescens, X100, Concomitant (CPFX:SM = 1:1), S. marcescens X 100, read-out: MIC concomitant) was 0.063 µg/mL, the MIC (S. marcescens X 100; Serratia marcescens, X100, Concomitant (DRPM:SM = 1:1), S. marcescens X 100, read-out: MIC concomitant) was 0.031 µg/mL and the MIC (S. marcescens X 100; Serratia marcescens, X100, Concomitant (IPM:SM = 1:1), read-out: MIC) was 0.125 µg/mL. For the same molecule, the MIC (S. marcescens X 100; Serratia marcescens, X100, Concomitant (MEPM:SM = 1:1), read-out: MIC) was no more than 0.016 µg/mL, the MIC (S. marcescens X 100; Serratia marcescens, X100, Concomitant (MEPM:SM = 1:2), read-out: MIC) was no more than 0.031 µg/mL and the MIC (S. marcescens X 100; Serratia marcescens, X100, Concomitant (MEPM:SM = 1:4), read-out: MIC) was no more than 0.063 µg/mL. For the same molecule, the MIC (S. marcescens X 100; Serratia marcescens, X100, Concomitant (PAPM:SM = 1:1), S. marcescens X 100, read-out: MIC concomitant) was 0.125 µg/mL, the MIC (S. marcescens X 100; Serratia marcescens, X100, Concomitant (PIPC:SM = 1:1), S. marcescens X 100, read-out: MIC concomitant) was 0.25 µg/mL and the MIC (S. marcescens X 100; Serratia marcescens, X100, Concomitant drug (MEPM:SM = 2:1), read-out: MIC) was 0.016 µg/mL. It also gave an MIC (S. marcescens X 100; Serratia marcescens, X100, alone, read-out: MIC) of 0.5 µg/mL, an MIC (S. marcescens X 100; Serratia marcescens, X100, drug alone, S. marcescens X 100, read-out: MIC alone) of 1 µg/mL and an MIC (S. marcescens X 100; alone) of 1 µg/mL.
